Reference: the supplement of paper PMC10307832

Assays:
Test in all cases: relative viability (nuclei count vs DMSO), 5 days (fraction); higher = more cells survive
Imatinib = compound: Cc1ccc(NC(=O)c2ccc(CN3CCN(C)CC3)cc2)cc1Nc1nccc(-c2cccnc2)n1 [Imatinib]
How it was run: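 Viability was defined as treated-well nuclei divided by vehicle-well nuclei, with the median taken over replicate plates. Cells from lung cancer lines sat overnight at 37 °C in 1536-well plates, received five √10-spaced library-drug doses by pinning on vehicle-anchored plates, and grew 5 days without medium change before one-step fixation, permeabilisation and Hoechst staining, 4× imaging and MetaXpress nuclear counts. Only plates with control CV under 25% and at least one doubling were kept.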

Imatinib + Luminespib = compound: Cc1ccc(NC(=O)c2ccc(CN3CCN(C)CC3)cc2)cc1Nc1nccc(-c2cccnc2)n1 [Imatinib] + CCNC(=O)c1noc(-c2cc(C(C)C)c(O)cc2O)c1-c1ccc(CN2CCOCC2)cc1 [Luminespib] (partner 0.01 µM)
How it was run: (§1)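 Lung cancer cell lines, seeded in 1536-well plates, were treated the following day by pin tool with a single drug or with five library-drug doses (not always all listed) in √10 steps on top of a fixed anchor-drug dose. Cells were fixed and nuclei stained in one step after 5 days, and nuclei were counted. Relative viability is the nuclei count for treated wells divided by that for vehicle wells, reported as medians of duplicate plates.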

Imatinib + Foretinib = compound: Cc1ccc(NC(=O)c2ccc(CN3CCN(C)CC3)cc2)cc1Nc1nccc(-c2cccnc2)n1 [Imatinib] + COc1cc2c(Oc3ccc(NC(=O)C4(C(=O)Nc5ccc(F)cc5)CC4)cc3F)ccnc2cc1OCCCN1CCOCC1 [Foretinib] (partner 0.25 µM)
How it was run: as §1

Imatinib + OSI-027 = compound: Cc1ccc(NC(=O)c2ccc(CN3CCN(C)CC3)cc2)cc1Nc1nccc(-c2cccnc2)n1 [Imatinib] + COc1cccc2cc(-c3nc([C@H]4CC[C@H](C(=O)O)CC4)n4ncnc(N)c34)[nH]c12 [OSI-027] (partner 0.5 µM)
How it was run: as §1

Imatinib + Tozasertib = compound: Cc1ccc(NC(=O)c2ccc(CN3CCN(C)CC3)cc2)cc1Nc1nccc(-c2cccnc2)n1 [Imatinib] + Cc1cc(Nc2cc(N3CCN(C)CC3)nc(Sc3ccc(NC(=O)C4CC4)cc3)n2)n[nH]1 [Tozasertib] (partner 0.1 µM)
How it was run: as §1

Imatinib + Dasatinib = compound: Cc1ccc(NC(=O)c2ccc(CN3CCN(C)CC3)cc2)cc1Nc1nccc(-c2cccnc2)n1 [Imatinib] + Cc1nc(Nc2ncc(C(=O)Nc3c(C)cccc3Cl)s2)cc(N2CCN(CCO)CC2)n1 [Dasatinib] (partner 0.075 µM)
How it was run: as §1

Imatinib + Phenformin = compound: Cc1ccc(NC(=O)c2ccc(CN3CCN(C)CC3)cc2)cc1Nc1nccc(-c2cccnc2)n1 [Imatinib] + N=C(N)NC(=N)NCCc1ccccc1 [Phenformin] (partner 250 µM)
How it was run: as §1

Imatinib + Trametinib = compound: Cc1ccc(NC(=O)c2ccc(CN3CCN(C)CC3)cc2)cc1Nc1nccc(-c2cccnc2)n1 [Imatinib] + CC(=O)Nc1cccc(-n2c(=O)n(C3CC3)c(=O)c3c(Nc4ccc(I)cc4F)n(C)c(=O)c(C)c32)c1 [Trametinib] (partner 0.02 µM)
How it was run: as §1

Imatinib + Palbociclib = compound: Cc1ccc(NC(=O)c2ccc(CN3CCN(C)CC3)cc2)cc1Nc1nccc(-c2cccnc2)n1 [Imatinib] + CC(=O)c1c(C)c2cnc(Nc3ccc(N4CCNCC4)cn3)nc2n(C2CCCC2)c1=O [Palbociclib] (partner 0.5 µM)
How it was run: as §1

Imatinib + AZD7762 = compound: Cc1ccc(NC(=O)c2ccc(CN3CCN(C)CC3)cc2)cc1Nc1nccc(-c2cccnc2)n1 [Imatinib] + NC(=O)Nc1cc(-c2cccc(F)c2)sc1C(=O)N[C@H]1CCCNC1 [AZD7762] (partner 0.2 µM)
How it was run: as §1

Imatinib + Pemetrexed = compound: Cc1ccc(NC(=O)c2ccc(CN3CCN(C)CC3)cc2)cc1Nc1nccc(-c2cccnc2)n1 [Imatinib] + Nc1nc2[nH]cc(CCc3ccc(C(=O)N[C@@H](CCC(=O)O)C(=O)O)cc3)c2c(=O)[nH]1 [Pemetrexed] (partner 0.2 µM)
How it was run: as §1

Imatinib + Decitabine = compound: Cc1ccc(NC(=O)c2ccc(CN3CCN(C)CC3)cc2)cc1Nc1nccc(-c2cccnc2)n1 [Imatinib] + Nc1ncn([C@H]2C[C@H](O)[C@@H](CO)O2)c(=O)n1 [Decitabine] (partner 2 µM)
How it was run: as §1

Imatinib + Vorinostat = compound: Cc1ccc(NC(=O)c2ccc(CN3CCN(C)CC3)cc2)cc1Nc1nccc(-c2cccnc2)n1 [Imatinib] + O=C(CCCCCCC(=O)Nc1ccccc1)NO [Vorinostat] (partner 1 µM)
How it was run: as §1

Imatinib + Olaparib = compound: Cc1ccc(NC(=O)c2ccc(CN3CCN(C)CC3)cc2)cc1Nc1nccc(-c2cccnc2)n1 [Imatinib] + O=C(c1cc(Cc2n[nH]c(=O)c3ccccc23)ccc1F)N1CCN(C(=O)C2CC2)CC1 [Olaparib] (partner 8 µM)
How it was run: as §1

Cell Line: NCI-H1623
- relative viability (Imatinib; 0.02 µM): 0.97
- relative viability (Imatinib; 0.06325 µM): 0.763
- relative viability (Imatinib; 0.2 µM): 0.814
- relative viability (Imatinib; 0.6325 µM): 0.956
- relative viability (Imatinib; 2 µM): 0.947
- relative viability (Imatinib + Luminespib; first compound 0.02 µM): 0.509
- relative viability (Imatinib + Luminespib; first compound 0.06325 µM): 0.522
- relative viability (Imatinib + Luminespib; first compound 0.2 µM): 0.489
- relative viability (Imatinib + Luminespib; first compound 0.6325 µM): 0.569
- relative viability (Imatinib + Luminespib; first compound 2 µM): 0.467
- relative viability (Imatinib + Foretinib; first compound 0.02 µM): 0.872
- relative viability (Imatinib + Foretinib; first compound 0.06325 µM): 0.811
- relative viability (Imatinib + Foretinib; first compound 0.2 µM): 0.749
- relative viability (Imatinib + Foretinib; first compound 0.6325 µM): 0.788
- relative viability (Imatinib + Foretinib; first compound 2 µM): 0.894
- relative viability (Imatinib + OSI-027; first compound 0.02 µM): 0.453
- relative viability (Imatinib + OSI-027; first compound 0.06325 µM): 0.453
- relative viability (Imatinib + OSI-027; first compound 0.2 µM): 0.386
- relative viability (Imatinib + OSI-027; first compound 0.6325 µM): 0.431
- relative viability (Imatinib + OSI-027; first compound 2 µM): 0.417
- relative viability (Imatinib + Tozasertib; first compound 0.02 µM): 0.435
- relative viability (Imatinib + Tozasertib; first compound 0.06325 µM): 0.488
- relative viability (Imatinib + Tozasertib; first compound 0.2 µM): 0.401
- relative viability (Imatinib + Tozasertib; first compound 0.6325 µM): 0.451
- relative viability (Imatinib + Tozasertib; first compound 2 µM): 0.416
- relative viability (Imatinib + Dasatinib; first compound 0.02 µM): 0.552
- relative viability (Imatinib + Dasatinib; first compound 0.06325 µM): 0.539
- relative viability (Imatinib + Dasatinib; first compound 0.2 µM): 0.482
- relative viability (Imatinib + Dasatinib; first compound 0.6325 µM): 0.537
- relative viability (Imatinib + Dasatinib; first compound 2 µM): 0.538
- relative viability (Imatinib + Phenformin; first compound 0.02 µM): 0.623
- relative viability (Imatinib + Phenformin; first compound 0.06325 µM): 0.601
- relative viability (Imatinib + Phenformin; first compound 0.2 µM): 0.535
- relative viability (Imatinib + Phenformin; first compound 0.6325 µM): 0.573
- relative viability (Imatinib + Phenformin; first compound 2 µM): 0.571

Cell Line: SW 900
- relative viability (Imatinib; 0.02 µM): 0.806
- relative viability (Imatinib; 0.06325 µM): 0.712
- relative viability (Imatinib; 0.2 µM): 0.941
- relative viability (Imatinib; 0.6325 µM): 0.896
- relative viability (Imatinib; 2 µM): 0.855
- relative viability (Imatinib + Trametinib; first compound 0.02 µM): 0.776
- relative viability (Imatinib + Trametinib; first compound 0.06325 µM): 0.625
- relative viability (Imatinib + Trametinib; first compound 0.2 µM): 0.641
- relative viability (Imatinib + Trametinib; first compound 0.6325 µM): 0.756
- relative viability (Imatinib + Trametinib; first compound 2 µM): 0.76
- relative viability (Imatinib + Palbociclib; first compound 0.02 µM): 0.549
- relative viability (Imatinib + Palbociclib; first compound 0.06325 µM): 0.644
- relative viability (Imatinib + Palbociclib; first compound 0.2 µM): 0.617
- relative viability (Imatinib + Palbociclib; first compound 0.6325 µM): 0.566
- relative viability (Imatinib + Palbociclib; first compound 2 µM): 0.588
- relative viability (Imatinib + Luminespib; first compound 0.02 µM): 0.201
- relative viability (Imatinib + Luminespib; first compound 0.06325 µM): 0.146
- relative viability (Imatinib + Luminespib; first compound 0.2 µM): 0.168
- relative viability (Imatinib + Luminespib; first compound 0.6325 µM): 0.175
- relative viability (Imatinib + Luminespib; first compound 2 µM): 0.161
- relative viability (Imatinib + Foretinib; first compound 0.02 µM): 0.879
- relative viability (Imatinib + Foretinib; first compound 0.06325 µM): 1.04
- relative viability (Imatinib + Foretinib; first compound 0.2 µM): 1.09
- relative viability (Imatinib + Foretinib; first compound 0.6325 µM): 0.717
- relative viability (Imatinib + Foretinib; first compound 2 µM): 1.04
- relative viability (Imatinib + OSI-027; first compound 0.02 µM): 0.564
- relative viability (Imatinib + OSI-027; first compound 0.06325 µM): 0.397
- relative viability (Imatinib + OSI-027; first compound 0.2 µM): 0.548
- relative viability (Imatinib + OSI-027; first compound 0.6325 µM): 0.583
- relative viability (Imatinib + OSI-027; first compound 2 µM): 0.496
- relative viability (Imatinib + Tozasertib; first compound 0.02 µM): 0.51
- relative viability (Imatinib + Tozasertib; first compound 0.06325 µM): 0.404
- relative viability (Imatinib + Tozasertib; first compound 0.2 µM): 0.712
- relative viability (Imatinib + Tozasertib; first compound 0.6325 µM): 0.469
- relative viability (Imatinib + Tozasertib; first compound 2 µM): 0.348
- relative viability (Imatinib + Dasatinib; first compound 0.02 µM): 0.552
- relative viability (Imatinib + Dasatinib; first compound 0.06325 µM): 0.412
- relative viability (Imatinib + Dasatinib; first compound 0.2 µM): 0.641
- relative viability (Imatinib + Dasatinib; first compound 0.6325 µM): 0.48
- relative viability (Imatinib + Dasatinib; first compound 2 µM): 0.567
- relative viability (Imatinib + Phenformin; first compound 0.02 µM): 0.57
- relative viability (Imatinib + Phenformin; first compound 0.06325 µM): 0.474
- relative viability (Imatinib + Phenformin; first compound 0.2 µM): 0.821
- relative viability (Imatinib + Phenformin; first compound 0.6325 µM): 0.578
- relative viability (Imatinib + Phenformin; first compound 2 µM): 0.499
- relative viability (Imatinib + AZD7762; first compound 0.02 µM): 0.784
- relative viability (Imatinib + AZD7762; first compound 0.06325 µM): 0.572
- relative viability (Imatinib + AZD7762; first compound 0.2 µM): 0.605
- relative viability (Imatinib + AZD7762; first compound 0.6325 µM): 0.619
- relative viability (Imatinib + AZD7762; first compound 2 µM): 0.529
- relative viability (Imatinib + Pemetrexed; first compound 0.02 µM): 0.465
- relative viability (Imatinib + Pemetrexed; first compound 0.06325 µM): 0.393
- relative viability (Imatinib + Pemetrexed; first compound 0.2 µM): 0.418
- relative viability (Imatinib + Pemetrexed; first compound 0.6325 µM): 0.47
- relative viability (Imatinib + Pemetrexed; first compound 2 µM): 0.425
- relative viability (Imatinib + Decitabine; first compound 0.02 µM): 0.37
- relative viability (Imatinib + Decitabine; first compound 0.06325 µM): 0.467
- relative viability (Imatinib + Decitabine; first compound 0.2 µM): 0.499
- relative viability (Imatinib + Decitabine; first compound 0.6325 µM): 0.468
- relative viability (Imatinib + Decitabine; first compound 2 µM): 0.411
- relative viability (Imatinib + Vorinostat; first compound 0.02 µM): 0.615
- relative viability (Imatinib + Vorinostat; first compound 0.06325 µM): 0.564
- relative viability (Imatinib + Vorinostat; first compound 0.2 µM): 0.538
- relative viability (Imatinib + Vorinostat; first compound 0.6325 µM): 0.654
- relative viability (Imatinib + Vorinostat; first compound 2 µM): 0.409
- relative viability (Imatinib + Olaparib; first compound 0.02 µM): 0.909
- relative viability (Imatinib + Olaparib; first compound 0.06325 µM): 1.08
- relative viability (Imatinib + Olaparib; first compound 0.2 µM): 1.05
- relative viability (Imatinib + Olaparib; first compound 0.6325 µM): 0.711
- relative viability (Imatinib + Olaparib; first compound 2 µM): 0.731
